Experimental data as given in patent US11382956B2, “Amylin analogues” (Zealand Pharma A/S, priority 2016, dated 2022).
Numbered stars: 1 amine (or outer) side, 2 acyl side, 3 side chain; on linkers, the order of the positions; unused ones are H or OH. Bridge positions count the residues as written; N and C are the ends. Square brackets hold non-standard residues; d marks the D form. Peptide text beside a SMILES is read from it. * marks the point of attachment. C20 diacid = O=C(O)CCCCCCCCCCCCCCCCCCC(=O)*; γGlu = O=C(O)[C@H](CCC(=O)[*:2])N[*:1]; Hyp = O=C(O)[C@@H]1C[C@@H](O)CN1; NMeI = CC[C@H](C)[C@H](NC)C(=O)O; Aad = N[C@@H](CCCC(=O)O)C(=O)O; Sar = CNCC(=O)O

Assays:
[1] = Assessment of physical stability: fibril formation by Thioflavin T fluorescence; format: physicochemical; parameters: key: FND = fibrillation not detected; FD = fibrillation detected; conditions: 1 mg/mL peptide; for Fibrillation (in buffer) pH4 acetate: 50 mM acetate buffer pH 4.0, 96 hours at 40° C.; for Fibrillation (in buffer) pH7 histidine: 50 mM histidine buffer pH 7.0, 96 hours at 40° C.; for Fibrillation (in buffer) pH7 phosphate: 50 mM phosphate buffer pH 7.0, 96 hours at 40° C.
How it was run: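 Test peptide at 1 mg/mL with 40 μM ThT in 50 mM phosphate pH 7.0, 50 mM histidine pH 7.0, or 50 mM acetate pH 4.0, in triplicate. Fluorescence read every 10 min after 300 s agitation for 96 hours at 40° C; significant intensity rise scored as fibrillation detected (FD).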

[2] = Assessment of chemical stability in 40 mM buffers at 40° C. (RP-HPLC); format: physicochemical; conditions: 1 mg/mL; for % degradation after 72 h at 40° C. pH4 acetate: acetate buffer pH 4, 72 h; for % degradation after 72 h at 40° C. pH6 phosphate: phosphate buffer pH 6, 72 h; for % degradation after 72 h at 40° C. pH7 phosphate: phosphate buffer pH 7, 72 h; for % degradation after 14 days at 40° C. pH7 phosphate: phosphate buffer pH 7, 14 days
How it was run: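 Peptides at 1 mg/mL in 40 mM acetate pH 4 or phosphate pH 6 and 7 were held at 40° C for 3 and 14 days. Main-peak area-% by C8 RP-HPLC, UV 220 nm; % degradation = change in main-peak area-% versus t=0.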

[3] = Pharmacokinetic (PK) profiling in rats; conditions: male, Sprague Dawley, plasma; rat, single sc bolus 30 nmol/kg; read-out: in vivo half life t1/2 (plasma terminal elimination half-life) (converted)
Procedure: Sprague Dawley male rats were given a single subcutaneous (sc) bolus of each peptide to be tested, as specified below.
30 nmol/kg doses of compound were administered. Blood samples were drawn from the tail vein prior to dosing and at 24 and 96 hours after dosing. The rats were euthanized immediately after the last blood sampling by concussion and cervical dislocation.
The dosing vehicle used for each test peptide was a mannitol-containing histidine buffer (pH 7.0). Plasma samples were analyzed after precipitation with ethanol by liquid chromatography mass spectrometry (LC-MS/MS). Mean plasma concentrations were used for calculation of the pharmacokinetic parameters.
Plasma terminal elimination half-life (t1/2) was determined as In(2)/λz, where λz is the magnitude of the slope of the log linear regression of the log concentration versus time profile during the terminal phase.

[4] = target: T1, recombinant human amylin 3 receptor (hAMYR3) (Homo sapiens, UniProt O60896+P30988); test: hAMYR3 cAMP assay (AlphaScreen) in 1321N1 cells; format: cell-based; conditions: cAMP formation, 45 min stimulation
T1 construct: host or cells: human astrocytoma cell line 1321N1
T1 sequence (P30988 25-474): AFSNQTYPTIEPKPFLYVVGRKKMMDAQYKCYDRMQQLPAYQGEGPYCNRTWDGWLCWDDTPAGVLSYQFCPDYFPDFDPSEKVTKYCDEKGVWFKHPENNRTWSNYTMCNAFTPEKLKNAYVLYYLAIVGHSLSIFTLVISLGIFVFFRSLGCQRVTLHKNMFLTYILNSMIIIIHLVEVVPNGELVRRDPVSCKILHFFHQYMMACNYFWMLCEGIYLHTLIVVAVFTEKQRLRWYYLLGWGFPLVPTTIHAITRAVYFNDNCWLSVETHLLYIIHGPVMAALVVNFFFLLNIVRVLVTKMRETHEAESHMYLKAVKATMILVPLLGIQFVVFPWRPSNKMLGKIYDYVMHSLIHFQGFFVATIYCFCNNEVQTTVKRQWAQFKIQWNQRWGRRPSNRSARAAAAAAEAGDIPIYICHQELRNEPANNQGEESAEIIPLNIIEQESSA
T1 sequence (O60896 24-148 partner): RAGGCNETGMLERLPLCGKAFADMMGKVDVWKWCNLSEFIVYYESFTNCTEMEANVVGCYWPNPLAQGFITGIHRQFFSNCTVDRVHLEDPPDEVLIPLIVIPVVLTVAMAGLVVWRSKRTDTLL
How it was run: (§1)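 1321N1 astrocytoma cells expressing recombinant human calcitonin receptor alone or with RAMP3 (AMY3) stimulated 45 min at room temperature with peptide in IBMX-containing buffer. cAMP quantified by AlphaScreen after 1 h bead incubation; EC50 fitted from at least 7 concentrations.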

[5] = Effect on acute food intake and body weight in normal Sprague Dawley rats; format: in vivo, Sprague Dawley (SD) rats; conditions: Dose: 30 nmol/kg sc, vehicle-corrected
[6] = target: T2, recombinant human calcitonin receptor (hCT-R) (Homo sapiens, UniProt P30988); test: hCT-R cAMP assay (AlphaScreen) in 1321N1 cells; format: cell-based; conditions: cAMP formation, 45 min stimulation
T2 construct: host or cells: human astrocytoma cell line 1321N1
T2 sequence (P30988 25-474): T1 sequence (P30988 25-474)
How it was run: as §1

| Fibrillation (in buffer) pH4 acetate [1] | Fibrillation (in buffer) pH7 histidine [1] | Fibrillation (in buffer) pH7 phosphate [1] | % degradation after 72 h at 40° C. pH4 acetate [2] [%] | % degradation after 14 days at 40° C. pH4 acetate ([2]; acetate buffer pH 4, 14 days) [%] | % degradation after 72 h at 40° C. pH6 phosphate [2] [%] | % degradation after 14 days at 40° C. pH6 phosphate ([2]; phosphate buffer pH 6, 14 days) [%] | % degradation after 72 h at 40° C. pH7 phosphate [2] [%] | % degradation after 14 days at 40° C. pH7 phosphate [2] [%] | half-life [3] [h] | EC50 [4] [nM] | EC50 [6] [nM] | SMILES | Body weight reduction in % at 48 h [5] [%] | Food intake reduction in % at 48 h [5] [%] |
| --- | --- | --- | --- | --- | --- | --- | --- | --- | --- | --- | --- | --- | --- | --- |
| FND | FND | FND | <1 | 2 | <1 | <1 | 1.4 | <1 | 36.1 | 0.028 | 0.066 | CC[C@H](C)[C@@H](C(=O)N[C@@H](CC(C)C)C(=O)N[C@@H](CO)C(=O)N[C@@H](CO)C(=O)N[C@H](C(=O)N[C@@H](CCC(=O)O)C(=O)N[C@H](C(=O)NCC(=O)N[C@@H](CO)C(=O)N[C@@H](CC(N)=O)C(=O)N[C@H](C(=O)N1C[C@H](O)C[C@H]1C(N)=O)[C@@H](C)O)C(C)C)[C@@H](C)O)N(C)C(=O)[C@H](C)NC(=O)CN(C)C(=O)[C@H](Cc1ccccc1)NC(=O)[C@H](CO)NC(=O)[C@H](CO)NC(=O)[C@H](CCCNC(=N)N)NC(=O)[C@H](CCC(N)=O)NC(=O)[C@H](CC(C)C)NC(=O)[C@H](Cc1ccccc1)NC(=O)[C@H](CCCC(=O)O)NC(=O)[C@H](C)NC(=O)[C@H](CC(C)C)NC(=O)[C@H](CCCNC(=N)N)NC(=O)[C@H](CCC(=O)O)NC(=O)[C@@H](NC(=O)[C@H](C)NC(=O)[C@@H]1CCCCNC(=O)C[C@H](NC(=O)[C@H](CCCNC(=N)N)NC(=O)CC[C@H](NC(=O)CCCCCCCCCCCCCCCCCCC(=O)O)C(=O)O)C(=O)NCC(=O)N[C@@H]([C@@H](C)O)C(=O)N[C@@H](C)C(=O)N[C@@H]([C@@H](C)O)C(=O)N1)[C@@H](C)O [Compound 35, [19CD]-isoGlu-RD()GTATK()ATERLA-Aad-FLQRSSF-Gly(Me)-A-Ile(Me)-LSSTEVGSNT-Hyp-NH2] ({C20 diacid-γGlu}-RDGTATKATERLA[Aad]FLQRSSF[Sar]A[NMeI]LSSTEVGSNT[Hyp]-NH2; lactam 2-7) | 12 | 72 |
| FD | FND | FND | <1 | – | <1 | – | <1 | <1 | 31.8 | 0.06 | 0.114 | CC[C@H](C)[C@@H](C(=O)N[C@@H](CC(C)C)C(=O)N[C@@H](CO)C(=O)N[C@@H](CO)C(=O)N[C@H](C(=O)N[C@@H](CCC(=O)O)C(=O)N[C@H](C(=O)NCC(=O)N[C@@H](CO)C(=O)N[C@@H](CC(N)=O)C(=O)N[C@H](C(=O)N1C[C@H](O)C[C@H]1C(N)=O)[C@@H](C)O)C(C)C)[C@@H](C)O)N(C)C(=O)[C@H](C)NC(=O)CN(C)C(=O)[C@H](Cc1ccccc1)NC(=O)[C@@H](NC(=O)[C@@H](NC(=O)[C@H](CCCNC(=N)N)NC(=O)[C@H](CCC(N)=O)NC(=O)[C@H](CC(C)C)NC(=O)[C@H](Cc1ccccc1)NC(=O)[C@H](CCCC(=O)O)NC(=O)[C@H](C)NC(=O)[C@H](CC(C)C)NC(=O)[C@H](CCCNC(=N)N)NC(=O)[C@H](CCC(=O)O)NC(=O)[C@@H](NC(=O)[C@H](C)NC(=O)[C@@H]1CCCCNC(=O)C[C@H](NC(=O)[C@H](CCCNC(=N)N)NC(=O)CC[C@H](NC(=O)CCCCCCCCCCCCCCCCCCC(=O)O)C(=O)O)C(=O)NCC(=O)N[C@@H]([C@@H](C)O)C(=O)N[C@@H](C)C(=O)N[C@@H]([C@@H](C)O)C(=O)N1)[C@@H](C)O)[C@@H](C)O)[C@@H](C)O [Compound 38, [19CD]-isoGlu-RD()GTATK()ATERLA-Aad-FLQRTTF-Gly(Me)-A-Ile(Me)-LSSTEVGSNT-Hyp-NH2] ({C20 diacid-γGlu}-RDGTATKATERLA[Aad]FLQRTTF[Sar]A[NMeI]LSSTEVGSNT[Hyp]-NH2; lactam 2-7) | 8.2 | 43 |
